# How the values were obtained:
# Full-length WT ClbP = Full-length WT ClbP (Escherichia coli, UniProt Q0P7K6); experiment: ClbP molecular (purified protein) enzymatic inhibition assay, fluorogenic substrate; assay type: biochemical, E. coli
# Protocol: ClbP Molecular (Purified Protein) Assay
# 1) Full-length WT ClbP was thawed on ice. A diluted enzyme solution (2 nM) was made by mixing 3.57 μL of enzyme with 20 mL of reaction buffer (50 mM Tris pH 8.0, 200 mM NaCl, 0.02% (w/v) n-dodecyl-b-D-maltoside (DDM)).
# 2) In a 96 well plate, the diluted protein solution (73.5 μL) was mixed with inhibitor (1.5 μL, of varying concentrations, see below) and preincubated for 15 min at room temperature. Then, reaction buffer (75 μL) containing 10 μM fluorogenic substrate was added to initiate the reaction. After addition of substrate, the final concentrations were 1 nM full-length WT ClbP, 5 μM fluorogenic substrate in 50 mM Tris pH 8.0, 200 mM NaCl, 0.02% (w/v) DDM, with either 0, 0.14, 0.41, 1.2, 3.7, 11, 33, or 100 μM inhibitor. For all conditions, the DMSO carryover was 2% (v/v) at the preincubation stage and 1% in the reaction stage. Compound No. III was always present as a control in each plate, and all compounds were tested in singlicate. In previous assays, the Km of the fluorogenic substrate was determined to be approximately 5 μM.
# 3) Immediately after addition of substrate to enzyme, the plate was transferred into a spectrophotometer held at room temperature. The fluorescence was recorded every 1.5 min for 15 min. The excitation wavelength was 360 nm (20 nm bandwidth), the emission wavelength was 440 nm (20 nm bandwidth), the optics position was bottom, the gain was extended, the light source was a xenon flash lamp, and the read speed was normal.
# (§1) 4) The linear portion of the fluorescence increase is at least from 0-6 min, so this time regime is used. The rate of fluorescence increase (A.U./min) for each well in an inhibitor series was normalized to the 0 μM inhibitor condition. The normalized activity as a function of inhibitor concentration was then fit to a three parameter IC50 curve in Graphpad Prism.
# (§2) “A” indicates an IC50 value less than 100 μM, “B” indicates an IC50 between 100 and 300 μM, “C” indicates an IC50 above 300 μM.
# ClbP [1] = target: T1, ClbP (Escherichia coli, UniProt Q0P7K6); experiment: ClbP cell lysate activity (inhibition) assay, fluorogenic substrate; assay type: biochemical; settings: ClbP Lysate Inhibition Assay: IC50, E. coli ClbP+ lysozyme-EDTA lysates, 5 μM fluorogenic substrate, inhibitor 0-300 μM, 37° C., singlicate
# Protocol: Cell Lysate Activity Assay
# (§3) 1) E. coli ClbP+ were taken from a frozen stock and streaked onto BHI plates. They were grown aerobically at 37° C. overnight in the incubator.
# (§4) 1) A single colony was selected from the plate and inoculated into 30 mL LB in a 50 mL conical vial eight times (240 mL total). The bacteria were grown aerobically overnight (16-20 h) at 37° C. on a nutator with rocking.
# 1) The saturated overnight culture was centrifuged to create a firm pellet (3,200 g, 10 min, 4° C.). The supernatant was removed and then the pellet was resuspended in 30 mL sterile PBS.
# 2) The bacteria were centrifuged again (3,200 g, 10 min, 4° C.). The supernatant was removed, and the pellet was resuspended in sterile PBS buffer (3 mL) in each 8 tubes to make a tenfold concentrated bacterial solution.
# 3) A lysozyme-EDTA (LE) solution was made in ddH2O (0.05 mg/mL lysozyme, 0.25 M EDTA).
# 4) For each of the eight tubes, LE solution (3 mL) was mixed with concentrated bacterial solution (3 mL). This mixture was incubated at 37° C. for 30 min to generate the lysates.
# 5) The lysates (192 μL) were mixed with inhibitor (6 μL, final concentration was 300, 100, 33.3, 11.1, 3.7, 1.2, 0.4, or 0 μM). Fluorogenic substrate (2 μL, final concentration 5 μM) was immediately added across the plate to initiate the reaction. As a control, each plate contained Compound No. III in this dose response curve. The final concentration of bacterial lysates was fivefold concentrated compared to the original saturated overnight culture. Carryover from DMSO was 4% (v/v). All compounds were tested in singlicate.
# (§5) 6) The plate was loaded into a spectrophotometer preheated to 37° C. The fluorescence was recorded every 2 min for 46 min. The excitation wavelength was 360 nm (20 nm bandwidth), the emission wavelength was 460 nm (20 nm bandwidth), the optics position was bottom, the gain was 65, the light source was a tungsten bulb, and the read speed was normal.
# as §1, with “7)” for “4)”, “was 0-20 min.” for “is at least from 0-6 min, so this time regime is used.”
# as §2
# ClbP [2] = target: T1, ClbP; experiment: ClbP whole cell activity (inhibition) assay, fluorogenic substrate; assay type: cell-based, E. coli
# Protocol: Whole Cell Activity Assay
# as §3, §4
# 1) The saturated overnight culture was centrifuged to create a firm pellet (3,200 g, 10 min, 4° C.). In a biosafety cabinet, the supernatant was removed and then the pellet was resuspended in 30 mL sterile PBS.
# 2) The bacteria were centrifuged again (3,200 g, 10 min, 4° C.). The supernatant was removed, and the pellet was resuspended in sterile PBS buffer (6 mL) in each of the 8 tubes. This fivefold concentrated bacterial solution was the working solution.
# 3) The bacterial working solution (192 μL) was mixed with inhibitor (6 μL, final concentration was 300, 100, 33.3, 11.1, 3.7, 1.2, 0.4, or 0 μM). Fluorogenic substrate (2 μL, final concentration 5 μM) was immediately added across the plate to initiate the reaction. As a control, each plate contained Compound No. III in this dose response curve. The bacterial concentration was fivefold concentrated compared to the original saturated overnight culture. Carryover from DMSO was 4% (v/v). All compounds were tested in singlicate.
# as §5, with “4)” for “6)”
# as §1, with “5)” for “4)”, “was 10-30 min.” for “is at least from 0-6 min, so this time regime is used.”
# as §2
Structure (SMILES),IC50 (Full-length WT ClbP),IC50 (ClbP [1]),IC50 (ClbP [2])
CCCCCCCC(=O)N[C@H](CC(N)=O)C(=O)NCCC1CCN(C)CC1 [Compound CCXIX],< 100 µM,100 to 300 µM,< 100 µM
CCCCCCCC(=O)N[C@H](CC(N)=O)c1nnc(CCc2ccccc2)o1 [Compound CCXI],100 to 300 µM,> 300 µM,> 300 µM
NC(=O)C[C@@H](NC(=O)CCC1CCCCC1)C(=O)NCCc1ccccc1 [Compound CCXLIII],< 100 µM,< 100 µM,< 100 µM
NC(=O)C[C@@H](NC(=O)CCC1CCCCC1)C(=O)NCCc1ccc(O)cc1 [Compound CCXLII],< 100 µM,< 100 µM,< 100 µM
CCCCCCCC(=O)N[C@H](CC(N)=O)C(=O)N[C@@H](C)Cc1ccc(O)cc1 [Compound CCXLIV],< 100 µM,< 100 µM,< 100 µM
CCCCCCCC(=O)N[C@H](CC(N)=O)C(=O)NCCc1ccc(OC)c(OC)c1 [Compound CCXLIX],< 100 µM,< 100 µM,< 100 µM
NC(=O)C[C@@H](NC(=O)CCCC1CCCCCC1)C(=O)NCCc1ccc(O)cc1 [Compound CCXLI],< 100 µM,< 100 µM,< 100 µM
CCCCCCCC(=O)N[C@H](CC(N)=O)C(=O)NCCc1cccc(OC)c1 [Compound CCXLVIII],< 100 µM,< 100 µM,100 to 300 µM
CCCCCCCC(=O)N[C@H](CC(=O)NC)C(=O)NCCc1ccc(O)cc1 [Compound CCXLVI],< 100 µM,100 to 300 µM,< 100 µM
CCCCCCCC(=O)N[C@H](CC(N)=O)C(=O)N[C@H](C)Cc1ccc(O)cc1 [Compound CCXLV],< 100 µM,< 100 µM,< 100 µM
NC(=O)C[C@@H](NC(=O)/C=C/CC1CCCCCC1)C(=O)NCCc1ccc(O)cc1 [Compound CCXL],< 100 µM,< 100 µM,< 100 µM
CCCCCCCC(=O)N[C@H](CC(N)=O)C(=O)NCCC1CCNCC1 [Compound CCXVIII],100 to 300 µM,< 100 µM,< 100 µM
CCCCCCCC(=O)N[C@H](CC(=O)NC)C(=O)NCCc1ccccc1 [Compound CCXVI],100 to 300 µM,100 to 300 µM,< 100 µM
CCCCCCCC(=O)N[C@H](CC(N)=O)C(=O)NCCc1cccc(O)c1 [Compound CCXXIII],< 100 µM,< 100 µM,< 100 µM
NC(=O)C[C@@H](NC(=O)CCCC1CCCCC1)C(=O)NCCc1ccc(O)cc1 [Compound CCXXII],< 100 µM,< 100 µM,< 100 µM
CCCCCCCC(=O)N[C@H](CC(N)=O)C(=O)NCCc1ccccc1O [Compound CCXXIV],< 100 µM,< 100 µM,< 100 µM
CCCCCCCCCC(=O)N[C@H](CC(N)=O)C(=O)NCCc1ccc(O)cc1 [Compound CCXXI],< 100 µM,< 100 µM,< 100 µM

Structure (SMILES),IC50 (Full-length WT ClbP),IC50 (ClbP [1]),IC50 (ClbP [2])
CCCCCCCC(=O)N[C@H](CC(N)=O)C(=O)NCCn1cccn1 [Compound CCXXVIII],< 100 µM,< 100 µM,< 100 µM
CCCCCCCC(=O)N[C@H](CC(N)=O)C(=O)NCCc1c[nH]cn1 [Compound CCXXVII],< 100 µM,< 100 µM,< 100 µM
CCCCCCCC(=O)N[C@H](CC(N)=O)C(=O)NCCc1ccc(O)c(O)c1 [Compound CCXXVI],< 100 µM,< 100 µM,< 100 µM
CCCCCCCC(=O)N[C@H](CC(N)=O)C(=O)NCCc1ccc(O)cc1O [Compound CCXXV],< 100 µM,< 100 µM,< 100 µM
CCCCCCCC(=O)N[C@H](CC(N)=O)C(=O)NCCc1nnn[nH]1 [Compound CCXXXIII],< 100 µM,< 100 µM,< 100 µM
CCCCCCCC(=O)N[C@H](CC(N)=O)C(=O)NCCc1cncs1 [Compound CCXXXII],< 100 µM,< 100 µM,< 100 µM
CCCCCCCC(=O)N[C@H](CC(N)=O)C(=O)NCCn1cnnc1 [Compound CCXXXIV],100 to 300 µM,> 300 µM,< 100 µM
NC(=O)C[C@@H](NC(=O)CCCC1CCCCCC1)C(=O)NCCc1ccccc1 [Compound CCXXXIX],< 100 µM,< 100 µM,< 100 µM
CCCCCCCC(=O)N[C@H](CC(N)=O)C(=O)NCCc1ccco1 [Compound CCXXXI],< 100 µM,< 100 µM,< 100 µM
NC(=O)C[C@@H](NC(=O)/C=C/CC1CCCCCC1)C(=O)NCCc1ccccc1 [Compound CCXXXVIII],< 100 µM,< 100 µM,< 100 µM
CCCCCCCC(=O)N[C@H](CC(N)=O)C(=O)NCCc1ccc(OC)nc1 [Compound CCXXXVII],< 100 µM,< 100 µM,< 100 µM
CCCCCCC(F)(F)C(=O)N[C@H](CC(N)=O)C(=O)NCCc1ccc(O)cc1 [Compound CCXXXVI],< 100 µM,< 100 µM,> 300 µM
CCCCCCCC(=O)N[C@H](CC(N)=O)C(=O)NCCc1ccc(=O)[nH]c1 [Compound CCXXXV],< 100 µM,> 300 µM,< 100 µM
CCCCCCCC(=O)N[C@H](CC(N)=O)C(=O)NCCc1cccnc1 [Compound CCXXX],< 100 µM,< 100 µM,< 100 µM
CCCCCCCC(=O)N[C@H](CC(N)=O)C(=O)NCCN1CCNCC1 [Compound CCXX],< 100 µM,< 100 µM,< 100 µM
CCCCCCCNC(=O)[C@H](CC(N)=O)NC(=O)Oc1ccccc1 [Compound CCX],100 to 300 µM,> 300 µM,> 300 µM
CCCCCCCC(=O)N[C@H](CC(N)=O)[C@H](O)CCCc1ccccc1 [Compound CXCII],100 to 300 µM,< 100 µM,> 300 µM
